Columns and labels:
Type in all cases: in vivo
[1] = test system: directly sowed rice plant; assay: Test Example 3: effect on crop by foliage application, Wagner pot (symbol b); conditions: application herbicide amount 320 g/ha
Summary of the method: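 Plants are raised from seed in flooded paddy conditions: water stands 0.1–0.5 cm over alluvial soil, and the pot is kept in a greenhouse at 25–30 °C. Species sown are barnyardgrass (E. crus-galli var. crus-galli), Leptochloa chinensis, Cyperus difformis and rice.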

Digitaria ciliaris [2] = assay: Test Example 4: herbicidal effect by soil treatment (symbol F); conditions: for F: Digitaria ciliaris, herbicidal effect grade: 320 g/ha
Summary of the method: (§1)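 Seeds were sown in sterilized diluvial soil, covered with about 1.5 cm of soil, and the soil surface was sprayed with a water-diluted emulsion of the compound at a predetermined rate. Plants grew in a greenhouse at 25° C. to 30° C.; effects were scored visually 3 weeks after application.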

[3] = test system: Echinochloa crus-galli var. crus-galli; assay: Test Example 4: herbicidal effect by soil treatment (symbol H); conditions: for H: Echinochloa crus-galli var. crus-galli, herbicidal effect grade: 320 g/ha
Summary of the method: as §1

Alopecurus myosuroides = assay: Test Example 4: herbicidal effect by soil treatment (symbol J); conditions: for J: Alopecurus myosuroides, herbicidal effect grade: 320 g/ha
Summary of the method: as §1

Lolium multiflorum Lam. = assay: Test Example 4: herbicidal effect by soil treatment (symbol K); conditions: for K: Lolium multiflorum Lam., herbicidal effect grade: 320 g/ha
Summary of the method: as §1

Stellaria media [4] = assay: Test Example 4: herbicidal effect by soil treatment (symbol P); conditions: for P: Stellaria media, herbicidal effect grade: 320 g/ha
Summary of the method: as §1

Galium spurium [5] = assay: Test Example 4: herbicidal effect by soil treatment (symbol Q); conditions: for Q: Galium spurium, herbicidal effect grade: 320 g/ha
Summary of the method: as §1

Veronica persica [6] = assay: Test Example 4: herbicidal effect by soil treatment (symbol R); conditions: for R: Veronica persica, herbicidal effect grade: 320 g/ha
Summary of the method: as §1

corn = assay: Test Example 4: effect on crop by soil treatment (symbol c); conditions: for c: corn, effect grade on crop: 320 g/ha
Summary of the method: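 Grown at 25° C. to 30° C. in a greenhouse, the crops came from seed sown spot-wise in sterilized diluvial soil under roughly 1.5 cm of covering soil.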

soybean = assay: Test Example 4: effect on crop by soil treatment (symbol d); conditions: for d: soybean, effect grade on crop: 320 g/ha
Summary of the method: (§2)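 Seeds were sown in spots on sterilized diluvial soil in a plastic box and covered with about 1.5 cm of soil. Plants were then grown in a greenhouse at 25° C. to 30° C.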

rice = assay: Test Example 4: effect on crop by soil treatment (symbol b); conditions: for b: directly sowed rice plant, effect grade on crop: 320 g/ha
Summary of the method: as §2

beet [7] = assay: Test Example 4: effect on crop by soil treatment (symbol f); conditions: for f: beet, effect grade on crop: 320 g/ha
Summary of the method: as §2

rapeseed = assay: Test Example 4: effect on crop by soil treatment (symbol g); conditions: for g: rapeseed, effect grade on crop: 320 g/ha
Summary of the method: as §2

Digitaria ciliaris [8] = assay: Test Example 5: herbicidal effect by foliage application, plastic box (symbol F); conditions: 320 g/ha, 3 weeks after application
Summary of the method: (§3)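 Effect is rated 3 weeks after a foliar spray of water-diluted emulsion concentrate at a predetermined herbicide amount. Plants had grown 14 days in a 25° C. to 30° C. greenhouse from seed in sterilized diluvial soil.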

Setaria viridis = assay: Test Example 5: herbicidal effect by foliage application, plastic box (symbol G); conditions: 320 g/ha, 3 weeks after application
Summary of the method: as §3

Avena fatua = assay: Test Example 5: herbicidal effect by foliage application, plastic box (symbol I); conditions: 320 g/ha, 3 weeks after application
Summary of the method: as §3

Apera spica-venti = assay: Test Example 5: herbicidal effect by foliage application, plastic box (symbol L); conditions: 320 g/ha, 3 weeks after application
Summary of the method: as §3

Abutilon theophrasti = assay: Test Example 5: herbicidal effect by foliage application, plastic box (symbol M); conditions: 320 g/ha, 3 weeks after application
Summary of the method: as §3

Chenopodium album = assay: Test Example 5: herbicidal effect by foliage application, plastic box (symbol O); conditions: 320 g/ha, 3 weeks after application
Summary of the method: as §3

Stellaria media [9] = assay: Test Example 5: herbicidal effect by foliage application, plastic box (symbol P); conditions: 320 g/ha, 3 weeks after application
Summary of the method: as §3

Galium spurium [10] = assay: Test Example 5: herbicidal effect by foliage application, plastic box (symbol Q); conditions: 320 g/ha, 3 weeks after application
Summary of the method: as §3

Veronica persica [11] = assay: Test Example 5: herbicidal effect by foliage application, plastic box (symbol R); conditions: 320 g/ha, 3 weeks after application
Summary of the method: as §3

rice plant = assay: Test Example 5: effect on crop by foliage application, plastic box (symbol b); conditions: 320 g/ha, 3 weeks after application
Summary of the method: (§4)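 Sterilized diluvial soil, plastic box (21 × 13 × 7 cm); spot sowing, ~1.5 cm soil cover; greenhouse 25–30° C.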

wheat = assay: Test Example 5: effect on crop by foliage application, plastic box (symbol e); conditions: 320 g/ha, 3 weeks after application
Summary of the method: as §4

beet [12] = assay: Test Example 5: effect on crop by foliage application, plastic box (symbol f); conditions: 320 g/ha, 3 weeks after application
Summary of the method: as §4

[13] = application herbicide amount 320 g/ha

CON=C(C)CC1CC(OS(C)(=O)=O)=C(c2c(C)cc(C)cc2C)C1=O (stereo not drawn) [1-006]
effect on crop b (directly sowed rice plant), grade 0-5 [1]: 5 (Herbicidal ratio of 90% or more (almost completely withered)) | F (Digitaria ciliaris) herbicidal effect grade (Digitaria ciliaris [2]; [13]): 5 (Herbicidal ratio of 90% or more (almost completely withered)) | H (Echinochloa crus-galli var. crus-galli) herbicidal effect grade [3, 13]: 5 (Herbicidal ratio of 90% or more (almost completely withered)) | J (Alopecurus myosuroides) herbicidal effect grade (Alopecurus myosuroides; [13]): 4 (Herbicidal ratio of 70% or higher and lower than 90%) | K (Lolium multiflorum Lam.) herbicidal effect grade (Lolium multiflorum Lam.; [13]): 5 (Herbicidal ratio of 90% or more (almost completely withered)) | P (Stellaria media) herbicidal effect grade (Stellaria media [4]; [13]): 0 (Herbicidal ratio of 5% or lower (almost no effect)) | Q (Galium spurium) herbicidal effect grade (Galium spurium [5]; [13]): 0 (Herbicidal ratio of 5% or lower (almost no effect)) | R (Veronica persica) herbicidal effect grade (Veronica persica [6]; [13]): 0 (Herbicidal ratio of 5% or lower (almost no effect)) | c (corn) effect on crop grade (corn; [13]): 1 (Herbicidal ratio of 5% or higher and lower than 20%) | d (soybean) effect on crop grade (soybean; [13]): 0 (Herbicidal ratio of 5% or lower (almost no effect)) | b (directly sowed rice plant) effect on crop grade (rice; [13]): 5 (Herbicidal ratio of 90% or more (almost completely withered)) | f (beet) effect on crop grade (beet [7]; [13]): 0 (Herbicidal ratio of 5% or lower (almost no effect)) | g (rapeseed) effect on crop grade (rapeseed; [13]): 0 (Herbicidal ratio of 5% or lower (almost no effect)) | F: Digitaria ciliaris, herbicidal effect grade (Digitaria ciliaris [8]): 5 (Herbicidal ratio of 90% or more (almost completely withered)) | G: Setaria viridis, herbicidal effect grade (Setaria viridis): 5 (Herbicidal ratio of 90% or more (almost completely withered)) | I: Avena fatua, herbicidal effect grade (Avena fatua): 5 (Herbicidal ratio of 90% or more (almost completely withered)) | L: Apera spica-venti, herbicidal effect grade (Apera spica-venti): 5 (Herbicidal ratio of 90% or more (almost completely withered)) | M: Abutilon theophrasti, herbicidal effect grade (Abutilon theophrasti): 4 (Herbicidal ratio of 70% or higher and lower than 90%) | O: Chenopodium album, herbicidal effect grade (Chenopodium album): 0 (Herbicidal ratio of 5% or lower (almost no effect)) | P: Stellaria media, herbicidal effect grade (Stellaria media [9]): 0 (Herbicidal ratio of 5% or lower (almost no effect)) | Q: Galium spurium, herbicidal effect grade (Galium spurium [10]): 0 (Herbicidal ratio of 5% or lower (almost no effect)) | R: Veronica persica, herbicidal effect grade (Veronica persica [11]): 2 (Herbicidal ratio of 20% or higher and lower than 40%) | b: directly sowed rice plant, effect on crop grade (rice plant): 5 (Herbicidal ratio of 90% or more (almost completely withered)) | e: wheat, effect on crop grade (wheat): 3 (Herbicidal ratio of 40% or higher and lower than 70%) | f: beet, effect on crop grade (beet [12]): 0 (Herbicidal ratio of 5% or lower (almost no effect))

CON=C(C)CC1CC(OC(=O)C(CSC)=NOC)=C(c2c(C)cc(C)cc2C)C1=O (stereo not drawn) [1-098]
effect on crop b (directly sowed rice plant), grade 0-5 [1]: 5 (Herbicidal ratio of 90% or more (almost completely withered)) | F: Digitaria ciliaris, herbicidal effect grade (Digitaria ciliaris [2]): 5 (Herbicidal ratio of 90% or more (almost completely withered)) | H: Echinochloa crus-galli var. crus-galli, herbicidal effect grade [3]: 5 (Herbicidal ratio of 90% or more (almost completely withered)) | J: Alopecurus myosuroides, herbicidal effect grade (Alopecurus myosuroides): 5 (Herbicidal ratio of 90% or more (almost completely withered)) | K: Lolium multiflorum Lam., herbicidal effect grade (Lolium multiflorum Lam.): 5 (Herbicidal ratio of 90% or more (almost completely withered)) | P: Stellaria media, herbicidal effect grade (Stellaria media [4]): 0 (Herbicidal ratio of 5% or lower (almost no effect)) | Q: Galium spurium, herbicidal effect grade (Galium spurium [5]): 0 (Herbicidal ratio of 5% or lower (almost no effect)) | R: Veronica persica, herbicidal effect grade (Veronica persica [6]): 0 (Herbicidal ratio of 5% or lower (almost no effect)) | c: corn, effect grade on crop (corn): 5 (Herbicidal ratio of 90% or more (almost completely withered)) | d: soybean, effect grade on crop (soybean): 2 (Herbicidal ratio of 20% or higher and lower than 40%) | b: directly sowed rice plant, effect grade on crop (rice): 5 (Herbicidal ratio of 90% or more (almost completely withered)) | f: beet, effect grade on crop (beet [7]): 0 (Herbicidal ratio of 5% or lower (almost no effect)) | g: rapeseed, effect grade on crop (rapeseed): 5 (Herbicidal ratio of 90% or more (almost completely withered)) | F: Digitaria ciliaris, herbicidal effect (criteria 0-5) (Digitaria ciliaris [8]): 5 (Herbicidal ratio of 90% or more (almost completely withered)) | G: Setaria viridis, herbicidal effect (criteria 0-5) (Setaria viridis): 5 (Herbicidal ratio of 90% or more (almost completely withered)) | I: Avena fatua, herbicidal effect (criteria 0-5) (Avena fatua): 5 (Herbicidal ratio of 90% or more (almost completely withered)) | L: Apera spica-venti, herbicidal effect (criteria 0-5) (Apera spica-venti): 5 (Herbicidal ratio of 90% or more (almost completely withered)) | M: Abutilon theophrasti, herbicidal effect (criteria 0-5) (Abutilon theophrasti): 4 (Herbicidal ratio of 70% or higher and lower than 90%) | O: Chenopodium album, herbicidal effect (criteria 0-5) (Chenopodium album): 0 (Herbicidal ratio of 5% or lower (almost no effect)) | P: Stellaria media, herbicidal effect (criteria 0-5) (Stellaria media [9]): 3 (Herbicidal ratio of 40% or higher and lower than 70%) | Q: Galium spurium, herbicidal effect (criteria 0-5) (Galium spurium [10]): 0 (Herbicidal ratio of 5% or lower (almost no effect)) | R: Veronica persica, herbicidal effect (criteria 0-5) (Veronica persica [11]): 3 (Herbicidal ratio of 40% or higher and lower than 70%) | b: directly sowed rice plant, effect on crop (criteria 0-5) (rice plant): 5 (Herbicidal ratio of 90% or more (almost completely withered)) | e: wheat, effect on crop (criteria 0-5) (wheat): 5 (Herbicidal ratio of 90% or more (almost completely withered)) | f: beet, effect on crop (criteria 0-5) (beet [12]): 1 (Herbicidal ratio of 5% or higher and lower than 20%)

CON=C(C)CC1CC(OC(=O)c2nc(C)sc2C)=C(c2c(C)cc(C)cc2C)C1=O (stereo not drawn) [1-101]
effect on crop b (directly sowed rice plant), grade 0-5 [1]: 5 (Herbicidal ratio of 90% or more (almost completely withered)) | F: Digitaria ciliaris, herbicidal effect grade (Digitaria ciliaris [2]): 5 (Herbicidal ratio of 90% or more (almost completely withered)) | H: Echinochloa crus-galli var. crus-galli, herbicidal effect grade [3]: 5 (Herbicidal ratio of 90% or more (almost completely withered)) | J: Alopecurus myosuroides, herbicidal effect grade (Alopecurus myosuroides): 5 (Herbicidal ratio of 90% or more (almost completely withered)) | K: Lolium multiflorum Lam., herbicidal effect grade (Lolium multiflorum Lam.): 5 (Herbicidal ratio of 90% or more (almost completely withered)) | P: Stellaria media, herbicidal effect grade (Stellaria media [4]): 0 (Herbicidal ratio of 5% or lower (almost no effect)) | Q: Galium spurium, herbicidal effect grade (Galium spurium [5]): 0 (Herbicidal ratio of 5% or lower (almost no effect)) | R: Veronica persica, herbicidal effect grade (Veronica persica [6]): 0 (Herbicidal ratio of 5% or lower (almost no effect)) | c: corn, effect grade on crop (corn): 5 (Herbicidal ratio of 90% or more (almost completely withered)) | d: soybean, effect grade on crop (soybean): 2 (Herbicidal ratio of 20% or higher and lower than 40%) | b: directly sowed rice plant, effect grade on crop (rice): 5 (Herbicidal ratio of 90% or more (almost completely withered)) | f: beet, effect grade on crop (beet [7]): 3 (Herbicidal ratio of 40% or higher and lower than 70%) | g: rapeseed, effect grade on crop (rapeseed): 5 (Herbicidal ratio of 90% or more (almost completely withered)) | F: Digitaria ciliaris, herbicidal effect (criteria 0-5) (Digitaria ciliaris [8]): 5 (Herbicidal ratio of 90% or more (almost completely withered)) | G: Setaria viridis, herbicidal effect (criteria 0-5) (Setaria viridis): 5 (Herbicidal ratio of 90% or more (almost completely withered)) | I: Avena fatua, herbicidal effect (criteria 0-5) (Avena fatua): 5 (Herbicidal ratio of 90% or more (almost completely withered)) | L: Apera spica-venti, herbicidal effect (criteria 0-5) (Apera spica-venti): 5 (Herbicidal ratio of 90% or more (almost completely withered)) | M: Abutilon theophrasti, herbicidal effect (criteria 0-5) (Abutilon theophrasti): 5 (Herbicidal ratio of 90% or more (almost completely withered)) | O: Chenopodium album, herbicidal effect (criteria 0-5) (Chenopodium album): 3 (Herbicidal ratio of 40% or higher and lower than 70%) | P: Stellaria media, herbicidal effect (criteria 0-5) (Stellaria media [9]): 3 (Herbicidal ratio of 40% or higher and lower than 70%) | Q: Galium spurium, herbicidal effect (criteria 0-5) (Galium spurium [10]): 0 (Herbicidal ratio of 5% or lower (almost no effect)) | R: Veronica persica, herbicidal effect (criteria 0-5) (Veronica persica [11]): 3 (Herbicidal ratio of 40% or higher and lower than 70%) | b: directly sowed rice plant, effect on crop (criteria 0-5) (rice plant): 5 (Herbicidal ratio of 90% or more (almost completely withered)) | e: wheat, effect on crop (criteria 0-5) (wheat): 5 (Herbicidal ratio of 90% or more (almost completely withered)) | f: beet, effect on crop (criteria 0-5) (beet [12]): 0 (Herbicidal ratio of 5% or lower (almost no effect))

— patent publication US11000033B2, “Ketone or oxime compound, and herbicide” (NISSAN CHEMICAL CORPORATION, priority 2014, dated 2021)
